According to patent US20190023658A1, “SUBSTITUTED 2-DIFLUOROMETHYL-NICOTIN(THIO)CARBOXANILIDE DERIVATIVES AND THEIR USE AS FUNGICIDES” (Bayer CropScience Aktiengesellschaft, priority 2015, published 2019):

How the values were obtained:
[1] = Log P by HPLC on reversed phase columns (EEC directive 79/831 Annex V.A8); format: physicochemical; settings: [a] LC-UV, acidic range, 0.1% formic acid in water and acetonitrile as eluent
Protocol: Measurement of Log P values was performed according to EEC directive 79/831 Annex V.A8 by HPLC (High Performance Liquid Chromatography) on reversed phase columns with the following methods: [a] Log P value is determined by measurement of LC-UV, in an acidic range, with 0.1% formic acid in water and acetonitrile as eluent (linear gradient from 10% acetonitrile to 95% acetonitrile). [b] Log P value is determined by measurement of LC-UV, in a neutral range, with 0.001 molar ammonium acetate solution in water and acetonitrile as eluent (linear gradient from 10% acetonitrile to 95% acetonitrile). Calibration was done with straight-chain alkan2-ones (with 3 to 16 carbon atoms) with known Log P values (measurement of Log P values using retention times with linear interpolation between successive alkanones). Lambda-max-values were determined using UV-spectra from 200 nm to 400 nm and the peak values of the chromatographic signals.

Puccinia recondita = experiment: In vivo preventive test on Puccinia recondita (brown rust on wheat); settings: 10 ppm of active ingredient; wheat plants, preventive spray, evaluated 11 days after inoculation
Protocol: (§1) Example: In Vivo Preventive Test on Puccinia recondita (Brown Rust on Wheat) [table] The active ingredients are made soluble and homogenized in a mixture of Dimethyl sulfoxide/Acetone/Tween® 80 and then diluted in water to the desired concentration. The young plants of wheat are treated by spraying the active ingredient prepared as described above. Control plants are treated only with an aqueous solution of Acetone/Dimethyl sulfoxide/Tween® 80. After 24 hours, the plants are contaminated by spraying the leaves with an aqueous suspension of Puccinia recondita spores. The contaminated wheat plants are incubated for 24 hours at 20° C. and at 100% relative humidity and then for 10 days at 20° C. and at 70-80% relative humidity. The test is evaluated 11 days after the inoculation. 0% means an efficacy which corresponds to that of the control plants while an efficacy of 100% means that no disease is observed.

Uromyces appendiculatus = experiment: In vivo preventive test on Uromyces appendiculatus (bean rust); settings: 500 ppm of active ingredient; bean plants, preventive spray, evaluated 11 days after inoculation
Protocol: as §1, with “Uromyces appendiculatus (Bean Rust)” for “Puccinia recondita (Brown Rust on Wheat)”, “bean” for “wheat”, “Uromyces appendiculatus” for “Puccinia recondita”

Row | LogP [1] | Structure (SMILES) | efficacy (Puccinia recondita) | efficacy (Uromyces appendiculatus)
1 | 3.29^[a] | O=C(Nc1ccccc1Oc1cccc(Cl)c1)c1cccnc1C(F)F [Example I-06] | at least 70% | 
2 | 3.96^[a] | O=C(Nc1ccc(F)cc1-c1ccc(Cl)c(Cl)c1)c1c(C(F)F)ccnc1C(F)F [Example I-31] |  | at least 70%
